In experiment [1] the test system is non-small cell lung cancer cell line H460. Nature of the experiment: In vitro human cancer cell line cytotoxicity (proliferation) assay in H460, CellTiter-Glo, 72 hours. It counts as cell-based. The settings on record: H460 cells, DMSO condition (no AKR1C3 inhibitor), read-out: CTG H460: Avg IC50 (nM) [Assay Condition: DMSO]. The procedure, abridged: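 IC50s in nM come from CellTiter-Glo viability read after 72 h of compound exposure. Compounds went in from 10 mM DMSO stocks onto H460 cells, which had been plated at 3×10^3 per well and grown 24 h beforehand at 37 °C, 5% CO2.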
(Cellular ATP, detected with luciferase, serves as a proxy for viable cell number.)

Experiment [2] shares this test system. Nature of the experiment: H460 proliferation assay in the presence of 3 uM ASP9521 (AKR1C3 specific inhibitor). Particulars: H460 cells, CellTiter-Glo, 72 hours, in the presence of 3 uM ASP9521 added 4 hours prior to compounds; read-out: CTG H460: Avg IC50 (nM) [Assay Condition: ASP9521]. The experiment is classed as cell-based, human. Put shortly: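 AKR1C3 blocked with 3 uM ASP9521 given 4 h ahead of test compounds. H460 cells, plated 24 h earlier, were then treated for 72 h at 37 °C in 5% CO2. CellTiter-Glo luminescence gave viability.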

The record followed here is US20260167656A1, “PHOSPHORAMIDATE COMPOUNDS AND USES THEREOF” (ALLORION THERAPEUTICS INC, priority 2022, published 2026).

In general, IC50 refers to the point on the concentration scale where inhibition reaches its midpoint. With `O=[N+]([O-])c1ccc2c(c1Oc1ccc(F)c(-n3cc(F)cn3)c1)CC[C@@H]2OP(=O)(N1CC1)N1CC1` [Example 421], the IC50 in experiment [1] (Homo sapiens, NCI-H460, 72 h) was below 10 nM; in experiment [2], 1400 nM.
Turning to `COc1ccn(Cc2cc(C(C)OP(=O)(N3CC3)N3CC3)ccc2[N+](=O)[O-])c(=O)c1` (single isomer, unassigned) [Example 2], the IC50 in experiment [1] (Homo sapiens, NCI-H460, 72 h) was at least 100 nM; in experiment [2] it was above 10000 nM.
On the same counts, the results for `O=C(c1cccc(Oc2cc3cc(COP(=O)(N4CC4)N4CC4)oc3cc2[N+](=O)[O-])c1)N1CCC1` [Example 535] are below 10 nM and 378 nM.
For `O=[N+]([O-])c1ccc2c(c1Oc1cccc(-c3ccnn3CC(F)F)c1)CC[C@@H]2OP(=O)(N1CC1)N1CC1` [Example 367], the IC50 was below 10 nM in experiment [1] (Homo sapiens, NCI-H460, 72 h) and 321 nM in experiment [2].
Regarding `Cn1nnc(-c2cc(Oc3c([N+](=O)[O-])ccc4c3CC[C@@H]4OP(=O)(N3CC3)N3CC3)ccc2F)n1` [Example 355], the IC50 in experiment [1] (Homo sapiens, NCI-H460, 72 h) was below 10 nM; in experiment [2] it was 1130 nM.
The matching figures for `O=[N+]([O-])c1ccc2c(c1Oc1cccc(-c3ccc(F)cc3)c1)CC[C@@H]2OP(=O)(N1CC1)N1CC1` [Example 298]: below 10 nM and 1690 nM.
As for `O=[N+]([O-])c1ccc2c(c1Oc1cccc(-c3ncccn3)c1)CCC2OP(=O)(N1CC1)N1CC1` (stereo not drawn) [Example 85], the IC50 in experiment [1] is below 10 nM; in experiment [2], 5280 nM.
As for `CC(OP(=O)(N1CC1)N1CC1)c1cc2cc(Oc3ccc4c(c3)OC(F)(F)O4)c([N+](=O)[O-])cc2o1` (stereo not drawn) [Example 546], the IC50 in experiment [1] (Homo sapiens, NCI-H460, 72 h) is below 10 nM; in experiment [2], 4690 nM.
For the compound `CN(C)C(=O)c1cccc(Oc2c([N+](=O)[O-])ccc3c2CCC3OP(=O)(N2CC2)N2CC2)c1` (single isomer, unassigned) [Example 33], the results for the IC50 in experiment [1] and in experiment [2] were below 10 nM and 476 nM, respectively.
Regarding `CC(C)Oc1cccc(Oc2c([N+](=O)[O-])ccc3c2CCC3OP(=O)(N2CC2)N2CC2)c1` (racemic) [Example 451], the IC50 in experiment [1] is below 10 nM; in experiment [2], 1030 nM.
For the compound `Cn1c(=O)oc2ccc(Oc3c([N+](=O)[O-])ccc4c3CC[C@@H]4OP(=O)(N3CC3)N3CC3)cc21` [Example 380], the IC50 is below 10 nM in experiment [1] (Homo sapiens, NCI-H460, 72 h) and 722 nM in experiment [2].
With `O=[N+]([O-])c1ccc2c(c1Oc1ccc(F)c(-c3ccccn3)c1)CCC2OP(=O)(N1CC1)N1CC1` (stereo not drawn) [Example 336], the IC50 in experiment [1] was below 10 nM; in experiment [2], 1680 nM.
Take `COc1ccc(Oc2c([N+](=O)[O-])ccc3c2CC[C@@H]3OP(=O)(N2CC2)N2CC2)cc1C1CC1` [Example 348]: the IC50 in experiment [1] (Homo sapiens, NCI-H460, 72 h) was below 10 nM; in experiment [2] it was 827 nM.
As to `O=[N+]([O-])c1ccc2c(c1Oc1cncc(-c3ccccc3)c1)CCC2OP(=O)(N1CC1)N1CC1` (stereo not drawn) [Example 311], the IC50 was below 10 nM in experiment [1] (Homo sapiens, NCI-H460, 72 h) and 485 nM in experiment [2].
On to `O=[N+]([O-])c1ccc2c(c1Oc1cc(F)cc(OCC3CC3)c1)CC[C@@H]2OP(=O)(N1CC1)N1CC1` [Example 503], for which the IC50 in experiment [1] (Homo sapiens, NCI-H460, 72 h) was below 10 nM; in experiment [2] it was 1660 nM.
For `O=[N+]([O-])c1ccc2c(c1Oc1cccc(OC3CCCC3)c1)CCC2OP(=O)(N1CC1)N1CC1` (racemic) [Example 460], the IC50 in experiment [1] was below 10 nM; in experiment [2] it was 1230 nM.
On the same counts, the results for `O=C(c1cc(Oc2c([N+](=O)[O-])ccc3c2CCC3OP(=O)(N2CC2)N2CC2)ccc1F)N1CCC1` (racemic) [Example 256] are below 10 nM and 1240 nM.
Turning to `C[C@H](OP(=O)(N1CC1)N1CC1)c1cc2cc(Oc3cccc(-c4ccccn4)c3)c([N+](=O)[O-])cc2o1` [Example 554], the figures for the IC50 in experiment [1] and in experiment [2] were below 10 nM and 6070 nM, respectively.
As to `Cc1ncn(-c2cc(Oc3c([N+](=O)[O-])ccc4c3CC[C@@H]4OP(=O)(N3CC3)N3CC3)ccc2F)n1` [Example 440], the IC50 in experiment [1] (Homo sapiens, NCI-H460, 72 h) is below 10 nM; in experiment [2], 897 nM.
On to `O=[N+]([O-])c1ccc2c(c1Oc1ccc(F)c(-c3ccccc3)c1)CC[C@@H]2OP(=O)(N1CC1)N1CC1` [Example 314], for which the IC50 is below 10 nM in experiment [1] (Homo sapiens, NCI-H460, 72 h) and 1590 nM in experiment [2].
As to `CN1Cc2ccc(Oc3cc4c(cc3[N+](=O)[O-])OCCC4OP(=O)(N3CC3)N3CC3)cc2C1=O` (single isomer, unassigned) [Example 202], the IC50 was below 10 nM in experiment [1] and 1390 nM in experiment [2].
Turning to `O=[N+]([O-])c1ccc2c(c1Oc1ccc(F)c(OC(F)F)c1)CCC2OP(=O)(N1CC1)N1CC1` (stereo not drawn) [Example 477], the IC50 is below 10 nM in experiment [1] and 627 nM in experiment [2].
The matching figures for `O=C(NC1CCC1)c1ccc(Oc2cc3c(cc2[N+](=O)[O-])CCC3OP(=O)(N2CC2)N2CC2)cc1` (stereo not drawn) [Example 191]: below 10 nM and 661 nM.
In the case of `O=[N+]([O-])c1ccc2c(c1Oc1ccccc1)CCC2OP(=O)(N1CC1)N1CC1` (stereo not drawn) [Example 16, 5-nitro-4-phenoxy-2,3-dihydro-1H-inden-1-yl di(aziridin-1-yl)phosphinate], the IC50 was 10 to 50 nM in experiment [1] (Homo sapiens, NCI-H460, 72 h) and 261 nM in experiment [2].
As for `CSc1cccc(Oc2c([N+](=O)[O-])ccc3c2CC[C@H]3OP(=O)(N2CC2)N2CC2)c1` [Example 472], the IC50 in experiment [1] was below 10 nM; in experiment [2] it was 583 nM.
As to `COc1cc(Oc2c([N+](=O)[O-])ccc3c2CC[C@@H]3OP(=O)(N2CC2)N2CC2)cc(-c2ncc(F)cn2)c1` [Example 365], the IC50 in experiment [1] (Homo sapiens, NCI-H460, 72 h) is below 10 nM; in experiment [2] it was 1320 nM.
Take `O=[N+]([O-])c1ccc2c(c1Oc1cccc(OC(F)(F)F)c1)CCC2OP(=O)(N1CC1)N1CC1` (racemic) [Example 447]: the IC50 in experiment [1] is below 10 nM; in experiment [2], 547 nM.
Consider `Cc1cnn(-c2ccc(Oc3c([N+](=O)[O-])ccc4c3CCC4OP(=O)(N3CC3)N3CC3)cc2)c1` (stereo not drawn) [Example 425], for which the IC50 in experiment [1] was below 10 nM; in experiment [2], 5270 nM.
Regarding `O=[N+]([O-])c1cc2c(cc1Oc1ccc(-c3ccccc3)nc1)C(OP(=O)(N1CC1)N1CC1)CC2` (stereo not drawn) [Example 192], the IC50 is below 10 nM in experiment [1] (Homo sapiens, NCI-H460, 72 h) and 1090 nM in experiment [2].
On to `O=C(NC1CCC1)c1ccc(Oc2cc3c(cc2[N+](=O)[O-])CC[C@H]3OP(=O)(N2CC2)N2CC2)cc1` [Example 526], for which the IC50 in experiment [1] is below 10 nM; in experiment [2], 661 nM.
As for `CN1CCc2ccc(Oc3cc4c(cc3[N+](=O)[O-])CCC4OP(=O)(N3CC3)N3CC3)cc2C1=O` (stereo not drawn) [Example 167], the figures for the IC50 in experiment [1] and in experiment [2] were 10 to 50 nM and 3150 nM, respectively.
Take `CC(OP(=O)(N1C[C@H]1C)N1C[C@H]1C)c1ccc([N+](=O)[O-])c(Oc2ccc(C(=O)N(C)C)cc2)c1` (stereo partly drawn) [Example 216]: the IC50 is below 10 nM in experiment [1] and 3240 nM in experiment [2].
For `O=[N+]([O-])c1ccc2c(c1Oc1ccc3ncccc3c1)CC[C@@H]2OP(=O)(N1CC1)N1CC1` [Example 400], the IC50 in experiment [1] (Homo sapiens, NCI-H460, 72 h) is below 10 nM; in experiment [2] it was 452 nM.
As for `O=C(c1cccc(Oc2c([N+](=O)[O-])ccc3c2CCC3OP(=O)(N2CC2)N2CC2)c1)N1CCCC1` (stereo not drawn) [Example 100], the half-maximal inhibitory concentration (IC50) in experiment [1] was below 10 nM; in experiment [2], 618 nM.
Consider `O=[N+]([O-])c1ccc2c(c1Oc1ccc(S(=O)(=O)C3CC3)cc1)CC[C@@H]2OP(=O)(N1CC1)N1CC1` [Example 512], for which the IC50 in experiment [1] (Homo sapiens, NCI-H460, 72 h) is below 10 nM; in experiment [2] it was 83.3 nM.
For `O=[N+]([O-])c1ccc2c(c1Oc1ccc(F)c(-n3ccc(F)n3)c1)CC[C@H]2OP(=O)(N1CC1)N1CC1` [Example 443], the IC50 in experiment [1] (Homo sapiens, NCI-H460, 72 h) was below 10 nM; in experiment [2] it was 571 nM.
Regarding `O=C(c1cccc(Oc2c([N+](=O)[O-])ccc3c2CCC3OP(=O)(N2CC2)N2CC2)c1)N1CCCCC1` (stereo not drawn) [Example 238], the IC50 is below 10 nM in experiment [1] and 1160 nM in experiment [2].
`O=[N+]([O-])c1ccc2c(c1Oc1ccc(-c3ccccn3)c(F)c1)CCC2OP(=O)(N1CC1)N1CC1` (stereo not drawn) [Example 287]: the results for the IC50 in experiment [1] and in experiment [2] were below 10 nM and 1010 nM, respectively.
For `CN1CCOc2ccc(Oc3cc4c(cc3[N+](=O)[O-])CCC4OP(=O)(N3CC3)N3CC3)cc2C1=O` (stereo not drawn) [Example 158], the IC50 is 50 to 100 nM in experiment [1] (Homo sapiens, NCI-H460, 72 h) and 4680 nM in experiment [2].
`[2H]C([2H])([2H])N(C(=O)c1cccc(Oc2cc3cc([C@H](C)OP(=O)(N4CC4)N4CC4)oc3cc2[N+](=O)[O-])c1)C([2H])([2H])[2H]` (single isomer, unassigned) [Example 533]: the IC50 in experiment [1] (Homo sapiens, NCI-H460, 72 h) is 10 to 50 nM; in experiment [2], 7430 nM.
On to `O=C(c1cccc(Oc2c([N+](=O)[O-])ccc3c2CCC3OP(=O)(N2CC2)N2CC2)c1)N1CCC1` (stereo not drawn) [Example 98], for which the IC50 is below 10 nM in experiment [1] and 205 nM in experiment [2].
Consider `O=[N+]([O-])c1ccc2c(c1Oc1cccc(OC3CCC3)c1)CCC2OP(=O)(N1CC1)N1CC1` (racemic) [Example 459], for which the IC50 in experiment [1] was below 10 nM; in experiment [2], 845 nM.
Consider `Cc1noc(-c2cccc(Oc3c([N+](=O)[O-])ccc4c3CCC4OP(=O)(N3CC3)N3CC3)c2)n1` (stereo not drawn) [Example 120], for which the IC50 in experiment [1] is below 10 nM; in experiment [2], 2080 nM.
On to `C[C@H](OP(=O)(N1CC1)N1CC1)c1cc2cc(Oc3cncc(-c4ccccc4)c3)c([N+](=O)[O-])cc2o1` [Example 568], for which the values for the IC50 in experiment [1] and in experiment [2] were below 10 nM and 1920 nM, respectively.
In the case of `Cn1ccc2cc(F)c(Oc3c([N+](=O)[O-])ccc4c3CCC4OP(=O)(N3CC3)N3CC3)cc21` (stereo not drawn) [Example 402], the IC50 in experiment [1] was below 10 nM; in experiment [2] it was 712 nM.
